According to PubChem BioAssay (NCI):
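Where inhibition never reached the appropriate level, the endpoint shown equals the highest concentration tested. Otherwise, values were interpolated linearly from a five-concentration, 48-hour dose response in 96-well plates. At the TGI there is no net growth.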

Columns and labels:
Experiment in all cases: NCI tumour cell line growth inhibition, 48 h
A498 renal = tested on: A498 renal
HCT-15 colon = tested on: HCT-15 colon
MCF7 breast = tested on: MCF7 breast
SK-MEL-5 melanoma = tested on: SK-MEL-5 melanoma
MOLT-4 leukemia = tested on: MOLT-4 leukemia
HOP-92 NSCLC = tested on: HOP-92 NSCLC
IGROV1 ovarian = tested on: IGROV1 ovarian
RXF 393 renal = tested on: RXF 393 renal
SK-MEL-28 melanoma = tested on: SK-MEL-28 melanoma
K-562 leukemia = tested on: K-562 leukemia

Row | SMILES | TGI (A498 renal) [µM] | TGI (HCT-15 colon) [µM] | TGI (MCF7 breast) [µM] | TGI (SK-MEL-5 melanoma) [µM] | TGI (MOLT-4 leukemia) [µM] | TGI (HOP-92 NSCLC) [µM] | TGI (IGROV1 ovarian) [µM] | TGI (RXF 393 renal) [µM] | TGI (SK-MEL-28 melanoma) [µM] | TGI (K-562 leukemia) [µM]
1 | COC1CCC(OC2CC(C3(C)CCC4(CC(O)C(C)C(C(C)/C=C(\C)C(=O)C(C)CC(C)C(=O)O)O4)O3)OC3(OC(C4OC(O)(CO)C(C)CC4C)CC3C)C2C)OC1C (stereo not given) | 0.336 | 1.95 | 1.91 | 0.464 | 0.339 | 2.77 | 16.2 | 0.225 | 0.189 | 
2 | COc1cc(C2c3cc4c(cc3OC(N3CCOCC3)C2C)OCO4)cc(OC)c1O (stereo not given) | 41.2 | 25.5 | > 100 | 17.5 | > 100 | > 65.3 | > 70.8 | 85.4 | > 48.6 | > 75.5
3 | Cc1cc2ccccc2c[n+]1CC(=O)CC([O-])(C(F)(F)F)C(F)(F)F | > 100 | > 100 |  | > 100 | > 100 | > 100 | > 100 | > 100 | > 100 | > 100
4 | CCOC(=O)/C=C(/C(=O)OCC)n1cc(C)c(=O)n(Cc2cnnn2CCCCOC(C)=O)c1=O |  | > 100 | 32.5 | 83.4 | 47.9 | 20.2 | 38.3 | > 100 | > 100 | > 100
5 | CC(NCCS(=O)(=O)O)C(=O)O (stereo not given) | > 100 | > 100 | > 100 | > 100 | > 100 | > 100 | > 100 | > 100 | > 100 | > 100
6 | CC(C)n1c(=O)c2nn3c(=O)n(C(C)C)c(=O)c3nn2c1=O | > 100 | > 100 | > 100 | > 100 | > 100 | > 100 | > 100 | > 100 | > 100 | 
7 | O=S1(=O)c2ccccc2N2CCCc3cc(Cl)cc1c32 | > 100 | > 100 | > 100 | > 100 | > 100 |  | > 100 | 51.3 | > 100 | > 100
8 | CO[P@]1(=O)O[C@@H](c2ccccc2)[C@H](O)[C@]1(O)c1ccccc1 | > 100 | > 100 | > 100 | > 100 |  | > 100 | > 100 | > 100 | > 100 | > 100
9 | O=C1CC(O)c2c(Cl)sc(Cl)c21 (stereo not given) | 42.6 | 11.3 | 30.5 | 43.5 | > 20.9 | 7.89 | 22.1 | 12.2 | 13.5 | > 28.7
10 | CC(=O)Nc1ccc(Nc2nc(=O)[nH]c(=O)[nH]2)cc1 | > 100 | > 100 | > 100 | > 100 |  | > 100 | > 100 |  | > 100 | 
11 | C=C(Br)CN(C#N)CC(=C)Br | > 100 | > 100 | > 100 | > 100 | > 100 |  | > 100 | > 100 | > 100 | > 100
12 | COc1ccc(CN=CN/C(C#N)=C(\N)C#N)cc1OC | > 100 | > 100 | > 100 | > 100 | > 100 |  | > 100 |  | > 100 | > 100
13 | S=C1CC(c2ccc(Cl)cc2)Sc2ccccc2N1 (stereo not given) |  | > 100 | > 100 | > 100 | > 10 |  | > 100 | 48.6 | > 100 | > 10
14 | COc1ccc2c(c1)CC[C@@H]1[C@@H]2CC[C@]2(C)/C(=N/OCCN3CCCCC3)CC[C@@H]12 | 23 | 6.23 | 21.8 | 6.27 | 8.37 | 14.4 | 5.6 | 8.17 | 5 | 9.62
15 | O=C1CC(c2cccc(Cl)c2)n2cccc21 (stereo not given) | > 100 | > 100 | > 100 |  | > 100 | > 100 |  | > 100 | > 100 | > 100
16 | Clc1ccc(OCc2nnc(CCCCCCCCc3nnc(COc4ccc(Cl)cc4Cl)o3)o2)c(Cl)c1 | > 100 | > 100 | > 100 | > 100 | > 100 | > 100 | > 100 | > 100 | > 100 | > 100
17 | COC(=O)CC1C2CC3C(C2=O)C13 (stereo not given) | > 100 | > 100 | > 100 | > 100 | > 100 | > 100 | > 100 | > 100 | > 100 | > 100
18 | CCCCNC(=S)Nc1nc(C(=O)NNS(=O)(=O)c2ccccc2)cs1 | > 100 | > 100 | > 100 | 31 | > 100 | > 100 | > 100 |  |  | > 100
19 | COc1ccc(-c2cc(-c3ccc(Nc4ccnc5cc(Cl)ccc45)cc3)nc(N)c2C#N)c2ccccc12 | > 100 | > 100 | > 100 | > 100 | > 100 |  | > 100 | > 100 | > 100 | > 100
20 | Cc1nn(-c2ccccc2)c(C)c1/C=N/NC(=O)c1sc(=S)n(-c2ccccc2)c1N | 59.3 | > 100 | > 100 | > 100 | > 100 |  | 1.79 | 4.36 | 48 | > 100
21 | COc1cccc(-c2cc(=O)c3cc(C)cnc3[nH]2)c1 | > 100 |  | > 100 | 3.17 | > 32.4 |  | > 100 |  | > 100 | > 100
22 | CCCCCCCCOCC1S(=O)(=O)OCCOS1(=O)=O | > 100 | > 100 |  | > 100 | > 100 | > 100 | > 100 | > 100 | > 100 | > 100
23 | O=C(CCCC(=O)N1CC(CCl)c2ccc([N+](=O)[O-])cc21)N1CC(CCl)c2ccc([N+](=O)[O-])cc21 (stereo not given) | > 100 | > 100 | > 100 | > 100 | > 100 | > 100 |  | > 100 | > 100 | > 100
